Literature values as cited in US12280046B2, “Melanocortin subtype-2 receptor (MC2R) antagonist for the treatment of disease” (Crinetics Pharmaceuticals, Inc., priority 2021, dated 2025).
Starred links: 1 amine or outer side, 2 acyl side, 3 side chain; linkers in the order of their positions; H or OH if unused. Non-standard residues stand in square brackets, D forms with d. Residues, ends and D or L forms follow the SMILES beside them. Groups on a side chain read outwards from the residue. *: point of attachment. Ethylenediamine = C(CN[*:2])N[*:1]; Hyp = O=C(O)[C@@H]1C[C@@H](O)CN1; Phg = N[C@H](C(=O)O)c1ccccc1; CO = O=C([*:1])[*:2]; Bn = c1ccc(C*)cc1

Assays:
[1] = assumption for full suppression curve; cited from earlier work
[2] = Phase 3 trial; cited from earlier work

SMILES | half-life [1] [h] | patients achieving normalization of urinary free cortisol [2] | patients with a hyperglycemia-related adverse event [2] [%]
C[C@]12CCC(=O)C=C1CC[C@@H]1[C@@H]2[C@@H](O)C[C@@]2(C)[C@H]1CC[C@]2(O)C(=O)CO [cortisol] | 1.1 ± 0.3 |  | 
NCCCC[C@@H]1NC(=O)[C@@H](Cc2c[nH]c3ccccc23)NC(=O)[C@H](c2ccccc2)NC(=O)[C@@H]2C[C@@H](OC(=O)NCCN)CN2C(=O)[C@H](Cc2ccccc2)NC(=O)[C@H](Cc2ccc(OCc3ccccc3)cc2)NC1=O [pasireotide] (cyclo([Hyp]([CO-Ethylenediamine])[Phg][dW]KY(Bn)F)) |  | 15-26% | 73
